Laboratory results reported in patent US20230322846A9, “NEUROACTIVE STEROIDS AND THEIR METHODS OF USE” (SAGE THERAPEUTICS, INC., priority 2018, published 2023).
pEC50, pIC50: −log10 of the molar value.

Experiments:
[1] = biological target: [35S]-TBPS binding, rat brain cortical membranes; assay: Steroid inhibition of [35S]-TBPS binding; settings: 3 nM [35S]-TBPS, in the presence of 5 mM GABA
Summary of the method: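 In the presence of […], compounds (DMSO 0.5% final) competed with 3 nM [35S]-TBPS for Sprague-Dawley rat cortical membranes, pH 7.4 phosphate buffer, 90 min, room temperature. Filtration and scintillation counting; specific binding defined by […]; IC50 and maximal inhibition fitted per experiment, averaged as mean ± SEM.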

[2] = biological target: human GABAA receptors composed of the α1β2γ2 subunits (Homo sapiens (Human), UniProt P14867+P18507+P47870); assay: α1β2γ2 SyncroPatch automated patch clamp assay; type: cell-based; settings: for pEC50: HEK cells, potentiation of submaximal GABA current, clamped at −120 mV; for α1β2γ2 EMAX: peak current after GABA+compound divided by peak current after GABA alone
human GABAA receptors composed of the α1β2γ2 subunits, sequence (P14867 28-456 limits assumed): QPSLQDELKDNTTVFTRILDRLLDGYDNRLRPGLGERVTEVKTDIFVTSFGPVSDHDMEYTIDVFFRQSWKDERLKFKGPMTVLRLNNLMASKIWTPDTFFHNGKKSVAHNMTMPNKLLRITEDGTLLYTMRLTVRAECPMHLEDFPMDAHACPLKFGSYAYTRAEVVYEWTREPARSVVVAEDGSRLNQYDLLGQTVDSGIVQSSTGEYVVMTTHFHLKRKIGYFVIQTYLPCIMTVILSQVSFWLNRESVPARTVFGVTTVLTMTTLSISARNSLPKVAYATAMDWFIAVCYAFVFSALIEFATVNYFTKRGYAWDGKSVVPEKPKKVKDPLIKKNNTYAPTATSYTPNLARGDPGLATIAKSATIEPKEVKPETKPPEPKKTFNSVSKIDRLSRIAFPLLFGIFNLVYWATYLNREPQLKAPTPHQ
human GABAA receptors composed of the α1β2γ2 subunits, sequence (P47870 25-512 limits assumed): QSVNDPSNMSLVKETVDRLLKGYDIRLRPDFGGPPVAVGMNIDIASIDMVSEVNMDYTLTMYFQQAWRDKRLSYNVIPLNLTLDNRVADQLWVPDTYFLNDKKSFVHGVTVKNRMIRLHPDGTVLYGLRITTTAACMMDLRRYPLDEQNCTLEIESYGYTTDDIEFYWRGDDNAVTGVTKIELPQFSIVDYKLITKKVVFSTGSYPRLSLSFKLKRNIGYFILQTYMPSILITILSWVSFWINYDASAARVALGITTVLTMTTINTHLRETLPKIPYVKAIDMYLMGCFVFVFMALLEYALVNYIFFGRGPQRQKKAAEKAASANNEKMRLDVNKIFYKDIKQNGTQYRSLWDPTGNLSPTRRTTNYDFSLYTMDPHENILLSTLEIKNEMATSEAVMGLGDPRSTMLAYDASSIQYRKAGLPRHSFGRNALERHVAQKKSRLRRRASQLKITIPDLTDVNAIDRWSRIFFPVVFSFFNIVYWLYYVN
human GABAA receptors composed of the α1β2γ2 subunits, sequence (P18507 40-475 limits assumed): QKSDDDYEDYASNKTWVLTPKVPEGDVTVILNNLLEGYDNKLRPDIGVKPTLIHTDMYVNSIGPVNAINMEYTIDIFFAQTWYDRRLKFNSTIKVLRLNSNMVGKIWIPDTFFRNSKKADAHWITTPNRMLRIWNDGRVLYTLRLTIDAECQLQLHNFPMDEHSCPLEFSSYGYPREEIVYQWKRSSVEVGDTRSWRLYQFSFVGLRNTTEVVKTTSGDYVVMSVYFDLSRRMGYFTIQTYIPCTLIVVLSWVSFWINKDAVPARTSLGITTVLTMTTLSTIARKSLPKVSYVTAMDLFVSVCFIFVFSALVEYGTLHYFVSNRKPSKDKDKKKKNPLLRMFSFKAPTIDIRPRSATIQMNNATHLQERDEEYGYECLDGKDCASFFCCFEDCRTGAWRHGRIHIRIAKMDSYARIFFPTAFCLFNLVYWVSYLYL
Summary of the method: (§1)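 Whole-cell recordings in HEK cells stably expressing each receptor, held at −120 mV, pH 7.4 extracellular/pH 7.2 KF-based intracellular solution. Submaximal GABA (3-5 μM or 10 μM) applied, then GABA plus compound at 0.029-30 μM (six concentrations, n=8-12 cells). Effect = peak current ratio GABA+compound/GABA alone; EC50 and Emax from concentration means.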

[3] = biological target: human GABAA receptors composed of the α4β3δ subunits (Homo sapiens (Human), UniProt O14764+P28472+P48169); assay: α4β3δ SyncroPatch automated patch clamp assay; type: cell-based; settings: for pEC50: HEK cells, potentiation of submaximal GABA current, clamped at −120 mV; for α4β3δ EMAX: peak current after GABA+compound divided by peak current after GABA alone
human GABAA receptors composed of the α4β3δ subunits, sequence (P48169 36-554 limits assumed): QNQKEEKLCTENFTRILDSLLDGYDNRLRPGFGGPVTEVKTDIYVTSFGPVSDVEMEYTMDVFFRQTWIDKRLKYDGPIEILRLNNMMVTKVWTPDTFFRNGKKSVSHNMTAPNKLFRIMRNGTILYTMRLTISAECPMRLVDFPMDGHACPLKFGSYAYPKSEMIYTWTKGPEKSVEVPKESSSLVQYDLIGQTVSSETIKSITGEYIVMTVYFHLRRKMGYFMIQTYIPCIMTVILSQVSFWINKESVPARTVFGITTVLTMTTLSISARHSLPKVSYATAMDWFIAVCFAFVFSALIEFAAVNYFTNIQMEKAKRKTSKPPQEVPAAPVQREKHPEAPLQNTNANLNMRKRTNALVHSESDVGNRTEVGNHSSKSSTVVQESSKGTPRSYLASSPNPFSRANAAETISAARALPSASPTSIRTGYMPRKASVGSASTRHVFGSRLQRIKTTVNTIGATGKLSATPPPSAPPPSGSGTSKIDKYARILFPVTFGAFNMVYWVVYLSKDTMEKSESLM
human GABAA receptors composed of the α4β3δ subunits, sequence (P28472 26-473 limits assumed): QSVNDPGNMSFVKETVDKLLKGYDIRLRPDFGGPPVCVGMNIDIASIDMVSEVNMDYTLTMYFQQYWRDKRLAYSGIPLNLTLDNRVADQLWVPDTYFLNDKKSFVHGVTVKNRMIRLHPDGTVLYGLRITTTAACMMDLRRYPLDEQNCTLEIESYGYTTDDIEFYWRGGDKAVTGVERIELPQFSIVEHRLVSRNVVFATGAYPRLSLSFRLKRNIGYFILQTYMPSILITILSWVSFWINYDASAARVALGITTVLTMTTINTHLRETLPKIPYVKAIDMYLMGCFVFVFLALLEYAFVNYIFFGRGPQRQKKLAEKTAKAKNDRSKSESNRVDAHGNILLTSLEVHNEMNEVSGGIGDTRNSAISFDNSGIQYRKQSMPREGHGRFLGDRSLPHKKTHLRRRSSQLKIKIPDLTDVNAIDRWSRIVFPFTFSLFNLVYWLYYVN
human GABAA receptors composed of the α4β3δ subunits, sequence (O14764 17-452 limits assumed): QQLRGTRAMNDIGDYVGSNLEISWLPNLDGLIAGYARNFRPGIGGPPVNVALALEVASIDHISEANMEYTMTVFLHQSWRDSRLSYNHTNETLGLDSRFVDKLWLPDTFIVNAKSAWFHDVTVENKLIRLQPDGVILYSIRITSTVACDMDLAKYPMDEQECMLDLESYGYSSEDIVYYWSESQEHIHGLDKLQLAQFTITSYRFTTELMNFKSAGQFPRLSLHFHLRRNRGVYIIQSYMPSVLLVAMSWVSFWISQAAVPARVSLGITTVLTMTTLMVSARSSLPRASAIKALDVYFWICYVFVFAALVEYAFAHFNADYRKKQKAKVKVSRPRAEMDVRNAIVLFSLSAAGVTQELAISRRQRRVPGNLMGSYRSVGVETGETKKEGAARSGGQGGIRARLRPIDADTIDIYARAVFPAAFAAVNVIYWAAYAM
Summary of the method: as §1

CCC[C@@]1(O)CC[C@H]2[C@H](CC[C@@H]3[C@@H]2CC[C@]2(C)[C@@H]([C@@H](C)Cn4nnc(C)n4)CC[C@@H]32)C1 [Example 294, (3R,5R,8R,9R,10S,13S,14S,17R)-13-methyl-17-((R)-1-(5-methyl-2H-tetrazol-2-yl)propan-2-yl)-3-propylhexadecahydro-1H-cyclopenta[a]phenanthren-3-ol]
pIC50 [1]: > 7.00
pEC50 [2]: 6.00 to 6.70
α1β2γ2 EMAX [2]: C (C indicates an Emax response ≥10)
pEC50 [3]: 6.00 to 6.70
α4β3δ EMAX [3]: B (B indicates an Emax response 30 to <45)

CC[C@@]1(O)CC[C@H]2[C@H](CC[C@@H]3[C@@H]2CC[C@]2(C)[C@@H]([C@H](C)Cn4cc(C#N)cn4)CC[C@@H]32)C1 [Example 276, 1-((S)-2-((3R,5R,8R,9R,10S,13S,14S,17R)-3-ethyl-3-hydroxy-13-methylhexadecahydro-1H-cyclopenta[a]phenanthren-17-yl)propyl)-1H-pyrazole-4-carbonitrile]
pIC50 [1]: > 7.00
pEC50 [2]: 6.00 to 6.70
α1β2γ2 EMAX [2]: B (B indicates an Emax response 8 to <10)
pEC50 [3]: > 6.70
α4β3δ EMAX [3]: A (A indicates an Emax response <30)

CCC[C@@]1(O)CC[C@@]2(C)[C@H](CC[C@H]3[C@@H]4CC[C@H](C(C)Cn5cc(C#N)cn5)[C@@]4(C)CC(=O)[C@@H]32)C1 (stereo in doubt) [Example 339, 1-((S)-2-((3R,5R,8S,9S,10S,13S,14S,17R)-3-hydroxy-10,13-dimethyl-11-oxo-3-propylhexadecahydro-1H-cyclopenta[a]phenanthren-17-yl)propyl)-1H-pyrazole-4-carbonitrile]
pIC50 [1]: > 7.00
pEC50 [2]: ≤ 6.00
α1β2γ2 EMAX [2]: C (C indicates an Emax response ≥10)
pEC50 [3]: > 6.70
α4β3δ EMAX [3]: C (C indicates an Emax response ≥45)

CCC[C@@]1(O)CC[C@H]2[C@@H](CC[C@@H]3[C@@H]2CC[C@]2(C)[C@@H]([C@@H](C)Cn4nnnc4C)CC[C@@H]32)C1 [Example 332, (3R,5S,8R,9R,10S,13S,14S,17R)-13-methyl-17-((R)-1-(5-methyl-1H-tetrazol-1-yl)propan-2-yl)-3-propylhexadecahydro-1H-cyclopenta[a]phenanthren-3-ol]
pIC50 [1]: 6.00 to 7.00
pEC50 [2]: > 6.70
α1β2γ2 EMAX [2]: A (A indicates an Emax response <8)
pEC50 [3]: 6.00 to 6.70
α4β3δ EMAX [3]: A (A indicates an Emax response <30)

C[C@@H](Cn1cc(C#N)cn1)[C@H]1CC[C@H]2[C@@H]3CC[C@@H]4C[C@@](O)(C5CC5)CC[C@@H]4[C@H]3CC[C@]12C [Example 341, 1-((R)-2-((3R,5R,8R,9R,10S,13S,14S,17R)-3-cyclopropyl-3-hydroxy-13-methylhexadecahydro-1H-cyclopenta[a]phenanthren-17-yl)propyl)-1H-pyrazole-4-carbonitrile]
pIC50 [1]: > 7.00
pEC50 [2]: > 6.70
α1β2γ2 EMAX [2]: A (A indicates an Emax response <8)
pEC50 [3]: > 6.70
α4β3δ EMAX [3]: A (A indicates an Emax response <30)

COC[C@@]1(O)CC[C@H]2[C@H](CC[C@@H]3[C@@H]2CC[C@]2(C)[C@@H]([C@H](C)Cc4ccc(C#N)nc4)CC[C@@H]32)C1 [Example 405, 5-((R)-2-((3R,5R,8R,9R,10S,13R,14S,17R)-3-hydroxy-3-(methoxymethyl)-13-methylhexadecahydro-1H-cyclopenta[a]phenanthren-17-yl)propyl)picolinonitrile]
pIC50 [1]: > 7.00
pEC50 [2]: ≤ 6.00
α1β2γ2 EMAX [2]: C (C indicates an Emax response ≥10)
pEC50 [3]: > 6.70
α4β3δ EMAX [3]: B (B indicates an Emax response 30 to <45)

C[C@@H](Cc1nc(C(F)(F)F)cs1)[C@H]1CC[C@H]2[C@@H]3CC[C@@H]4C[C@](C)(O)CC[C@]4(C)[C@H]3CC[C@]12C [Example 453]
pIC50 [1]: > 7.00
pEC50 [2]: 6.00 to 6.70
α1β2γ2 EMAX [2]: A (A indicates an Emax response <8)
pEC50 [3]: > 6.70
α4β3δ EMAX [3]: A (A indicates an Emax response <30)

COC[C@@]1(O)CC[C@H]2[C@@H](CC[C@@H]3[C@@H]2CC[C@]2(C)[C@@H]([C@@H](C)Cn4nnc(C)n4)CC[C@@H]32)C1 [Example 53, (3R,5S,8R,9R,10S,13S,14S,17R)-3-(methoxymethyl)-13-methyl-17-((R)-1-(5-methyl-2H-tetrazol-2-yl)propan-2-yl)hexadecahydro-1H-cyclopenta[a]phenanthren-3-ol]
pIC50 [1]: 6.00 to 7.00
pEC50 [2]: ≤ 6.00
α1β2γ2 EMAX [2]: A (A indicates an Emax response <8)
pEC50 [3]: ≤ 6.00
α4β3δ EMAX [3]: A (A indicates an Emax response <30)

CCOC[C@@]1(O)CC[C@H]2[C@H](CC[C@@H]3[C@@H]2CC[C@]2(C)[C@@H]([C@@H](C)N(C)S(=O)(=O)c4cccc(C#N)n4)CC[C@@H]32)C1 [Example 72]
pIC50 [1]: > 7.00
pEC50 [2]: 6.00 to 6.70
α1β2γ2 EMAX [2]: C (C indicates an Emax response ≥10)
pEC50 [3]: 6.00 to 6.70
α4β3δ EMAX [3]: C (C indicates an Emax response ≥45)

CCOC[C@@]1(O)CC[C@H]2[C@H](CC[C@@H]3[C@@H]2CC[C@]2(C)[C@@H]([C@@H](C)NC(=O)c4ccc(F)cc4F)CC[C@@H]32)C1 [Example 132]
pIC50 [1]: > 7.00
pEC50 [2]: ≤ 6.00
α1β2γ2 EMAX [2]: C (C indicates an Emax response ≥10)
pEC50 [3]: ≤ 6.00
α4β3δ EMAX [3]: B (B indicates an Emax response 30 to <45)

C[C@H](Cc1nccc(C#N)n1)[C@H]1CC[C@H]2[C@@H]3CC[C@@H]4C[C@](C)(O)CC[C@@H]4[C@H]3CC[C@]12C [Example 436]
pIC50 [1]: 6.00 to 7.00
pEC50 [2]: 6.00 to 6.70
α1β2γ2 EMAX [2]: A (A indicates an Emax response <8)
pEC50 [3]: ≤ 6.00
α4β3δ EMAX [3]: B (B indicates an Emax response 30 to <45)

CCOC[C@@]1(O)CC[C@H]2[C@H](CC[C@@H]3[C@@H]2CC[C@]2(C)[C@@H]([C@@H](C)Nc4cccc(N5CCCC5=O)n4)CC[C@@H]32)C1 [Example 263]
pIC50 [1]: > 7.00
pEC50 [2]: 6.00 to 6.70
α1β2γ2 EMAX [2]: A (A indicates an Emax response <8)
pEC50 [3]: 6.00 to 6.70
α4β3δ EMAX [3]: A (A indicates an Emax response <30)

CCC[C@@]1(O)CC[C@H]2[C@H](CC[C@@H]3[C@@H]2CC[C@]2(C)[C@@H]([C@@H](C)Cc4ccc(C#N)nc4)CC[C@@H]32)C1 [Example 401, 5-((S)-2-((3R,5R,8R,9R,10S,13R,14S,17R)-3-hydroxy-13-methyl-3-propylhexadecahydro-1H-cyclopenta[a]phenanthren-17-yl)propyl)picolinonitrile]
pIC50 [1]: > 7.00
pEC50 [2]: ≤ 6.00
α1β2γ2 EMAX [2]: C (C indicates an Emax response ≥10)
pEC50 [3]: ≤ 6.00
α4β3δ EMAX [3]: A (A indicates an Emax response <30)
